Results as given in patent US20120309753A1, “METHOD OF DISSOLVING ANTIFUNGAL AGENT, AND COMPOSITIONS WITH A HIGH CONCENTRATION OF ANTIFUNGAL AGENT, SUITABLE FOR APPLICATION TO THE NAIL” (GALDERMA RESEARCH & DEVELOPMENT, priority 2009, published 2012).
Structures can show the parent of a compound that is named as a salt. Where two headings read alike, the source gives them in different places.

Legend:
[1] = Description: Different solubility tests on terbinafine HCl were carried out in different solvent systems. The solubility was both estimated visually by Method 1 below, then quantified by HPLC assay by Method 2 below.
Weigh out precisely approximately 15 mg of terbinafine HCl into a 50 ml volumetric flask. Dissolve in the diluent and make up to the volume with the same solvent. Prepare the solution in duplicate (A1, A2)
Dilute solution A to 1/5 in the diluent. Dilution
The standard range is produced by varying the injection volume of solution A, at an equivalent concentration of 4 μg/ml to 120 μg/ml.
2 tests per sample are prepared, of concentrations from 40 μg/ml to 100 μg/ml.
• Column: Sun Fire C18 4.6×100 mm 3.5 μm, fitted with a precolumn. • Column temperature: 30° C. • Flow rate: 1.5 ml/min • Injected volume: 30 μl for the sample solutions • Analysis time: 10 min • Detection at: 285 nm • Gradient:
• Inject a blank sample (diluent) and check that no peak of the blank sample interferes with the terbinafine HCl. • Inject solutions STD1 and STD2 and check that the % deviation between the 2 controls is <2%.

[2] = Visual solubility of terbinafine HCl in solvent systems (Method 1); assay type: physicochemical
Description: Terbinafine HCl is weighed out accurately into a 20 ml flask and then the solvents are added. The flask is subsequently placed, with magnetic stirring, in a chamber thermostated at 20° C., for 16 h. If some of the active ingredient has not dissolved, a further addition of solvent is made. The flask is then placed again, with magnetic stirring, in the thermostated chamber, for 16 h, until dissolution is complete. If this is not so, the preceding step is repeated.

Trichophyton rubrum = details: oral route, 250 mg/day for 6 months; cited from earlier work

SMILES	solubility by HPLC assay ([1]; 50/50 ethanol/propylene glycol mixture) [% w/w]	expected solubility by additive effect ([1]; ethanol/propylene glycol binary mixture, expected from the single solvents) [%]	solubility by HPLC assay ([1]; in ethanol) [% w/w]	solubility by HPLC assay ([1]; in propylene glycol) [% w/w]	visual solubility ([2]; 15% water, 70% ethanol, 15% propylene glycol) [% w/w]	visual solubility ([2]; 15% water, 70% propylene glycol, 15% ethanol) [% w/w]	visual solubility ([2]; 30% water, 35% propylene glycol, 35% ethanol) [% w/w]	visual solubility ([2]; 33% water, 33% propylene glycol, 33% ethanol) [% w/w]	visual solubility ([2]; 50/50 ethanol/propylene glycol mixture, 20° C.) [% w/w]	visual solubility ([2]; binary water/ethanol mixture (50/50), 20° C.) [% w/w]	visual solubility ([2]; binary water/propylene glycol mixture (50/50), 20° C.) [% w/w]	visual solubility ([2]; in ethanol, 20° C.) [% w/w]	visual solubility ([2]; in propylene glycol, 20° C.) [% w/w]	visual solubility ([2]; in water, 20° C.) [% w/w]	solubility ([2]; ternary water/propylene glycol/ethanol mixture containing at least 30% of water (Graph 1))	solubility ([2]; ternary mixture with 40% of water, amount of ethanol greater than or equal to that of propylene glycol)	efficacy in the treatment of onychomycoses due to Trichophyton rubrum (Trichophyton rubrum)
CN(C/C=C/C#CC(C)(C)C)Cc1cccc2ccccc12 [terbinafine HCl, terbinafine hydrochloride]	20.4	~14	18.09	10.3	25.2	25.0	18.5	15.5	23.3	16.7	2.2	19.7	8.9	0.6	greater than 10%		
CN(C/C=C/C#CC(C)(C)C)Cc1cccc2ccccc12 [terbinafine]																greater than 10%	effective
